# Earlier results, collected in patent US11607623B2, “Dynamic interface system and its application in supercritical fluid extraction and chromatography” (CORNERSTONE TECHNOLOGIES LLC, priority 2019, dated 2023).
structure (smiles),measurement,setting,value
"CCCCCc1cc(O)c2c(c1)OC(C)(C)c1ccc(C)cc1-2 [CBN, cannabinol]","molar solubility in SC-CO2, course across temperature","220-240 bar, across the 42-72° C. temperature ranges",inverted-U curve
same,solubility in SC-CO2 at 54° C. relative to 41° C. or 61° C.,lower pressures 160-180 bar,two-fold greater
"CCCCCc1cc(O)c2c(c1)OC(C)(C)[C@@H]1CCC(C)=C[C@@H]21 [THC, delta-9-tetrahydrocannabinol]","solubility in SC-CO2, change with temperature","pressures of 220-240 bar, temperature raised from 42° C. to 72° C.",two-fold increase
